Values quoted from earlier work in US20240415113A1, “COMPOSITION AND METHOD FOR ATTRACTING VESPID WASPS” (BanfieldBio Inc., priority 2023, published 2024).

How the values were obtained:
western yellowjackets = settings: Oregon peach orchard, 10 days in 1969
vespid wasps = settings: 50 μL heptyl butyrate and 1 g chicken meat extract, separately or together in the receiving chamber

CCCCCCCOC(=O)CCC [Heptyl butyrate]
western yellowjackets captured per trap (western yellowjackets): over 800 western yellowjackets per trap
trap catch comparison in words (vespid wasps): impeded entry into traps baited with the chicken extract
